In assay [1] the test system is IP-10 (CXCL10). In words: IP-10 level in BEAS-2B cells infected with rhinovirus RV-16. The following applies: BEAS-2B cells infected with RV-16; test ingredient at 5 μM andrographolide content; control 61.99. The format is cell-based, human. The text has this:
An in vitro cell line of BEAS-2B cells can be infected with rhinovirus RV-16. The cells are then exposed to various compounds and extracts and subsequently levels of respiratory biomarker proteins can be assayed. Extracts and compounds are identified as regulating the respiratory biomarker proteins by monitoring the levels of the respiratory biomarker proteins after exposure of the infected cells to the extracts and compounds and comparing to the levels of the respiratory biomarker proteins in infected cells that have not been exposed to extracts and compounds.
In the example, the test ingredients are extracts of the herb andrographis paniculata, or its principal component, andrographolide. The test ingredients are tested at a level of 5 μM andrographolide content. The respiratory biomarker protein is IP-10 (CXCL10), a chemotactic agent.

Assay [2] relates to NF-kB. In words: IL1b-induced NFkB nuclear translocation (Cellomics HitKit), BEAS-2B cells. The format is cell-based. The following applies: Homo sapiens, 0.5 h, IL1b 0.5 ng/ml for 30 min, then inhibitor 30 min. An excerpt:
(§1) Because NF-κB must be in the nucleus to induce gene expression, its translocation is a definitive measure of its activation and marks an earlier event than reporter gene expression. This assay is an example of a 96-well medium throughput technology that can detect NF-κB translocation in several cell types.
(§2) Assays may be performed in standard, high-density microplates, where measurements of the rate and extent of NF-κB translocation are made in intact cells which provides more biological representative information. Cellomics' NF-κB activation kit (Cat. No. K01-001-1) may combine fluorescent reagents and protocols for optimized sample preparation and assays, and requires no cell lysis, purification or filtration steps. After fixation, the plates are stable for extended periods, when stored light-protected at 4° C.
(§3) One may create a fully automated screen to identify compounds that inhibit or activate NF-[…]B on a cell-by-cell basis. Prepared cells can be analyzed using standard fluorescence microscopy or using Cellomics' fully automated HCS Reader with the Cytoplasm to Nucleus Translocation Bioapplication, affording automated plate handling, focusing, image acquisition, analysis, quantification, and data storage.

For assay [3], the system named is NF-kB. In words: IL1b-induced NFkB nuclear translocation (Cellomics HitKit), A549 cells. The format is cell-based. The conditions noted are these: Homo sapiens, 0.5 h, IL1b 0.05 ng/ml for 30 min, then inhibitor 30 min.
Text: as §1, §2, §3

In assay [4] the target is T1, ovine COX-1 (Ovis aries, UniProt P05979).
T1 construct: purchased Cayman Chemical Company 560101
Put plainly: COX Inhibitor Screening Assay (Cayman), COX-1. The format is biochemical. An excerpt: An example of a COX Inhibitor Screening Assay (Cat. No. 560101 manufactured by Cayman Chemical Company, Ann Harbor, Mich.) directly measures PGF2 produced by SnCl2 reduction of COX-derived PGH2. The prostanoid product may be quantified via enzyme immunoassay (EIA) using a broadly specific antibody that binds to all the major prostaglandin compounds. Thus, the COX assay is more accurate and reliable than an assay based on peroxidase inhibition. The Cayman COX Inhibitor Screening Assay includes both ovine COX-1 and human recombinant COX-2 enzymes in order to screen isozyme-specific inhibitors. This assay may be an excellent tool which can be used for general inhibitor screening, or to eliminate false positive leads generated by less specific methods.
(§4) Test compounds may be assayed for inhibition of prostaglandin production via contacting them individually with cells that have been infected with rhinovirus. An assay for prostaglandin is available from Cisbio International, Bedford Mass. One cell line suitable for infection by rhinovirus is A549 (ATCC designation CCL-185), a human epithelial lung carcinoma available from ATCC, Manassas, Va. […] A COX assay is available from Cayman Chemical, Ann Arbor, Mich.

Assay [5] deals with PGE2 formation. In words: PGE2 formation in cells infected with rhinovirus (Cisbio HTRF assay). The format is cell-based, human.
Text: There are several standard methods available for quantifying PGE2. The HTRF® PGE2 assay (developed by Cisbio International, Cat. No. 62P2APEB) is an example of a highly sensitive method for quantifying PGE2. Its principle is based on HTRF technology (Homogeneous Time-Resolved Fluorescence). It can be performed either in cell supernatants or directly in the presence of whole cells. This method is a competitive immunoassay in which native PGE2 produced by cells, and d2-labelled PGE2 compete for binding to MAb anti-PGE2 labeled with cryptate. The HTRF signal is inversely proportional to the concentration of PGE2 in the calibrator or in the sample. The incubation time and temperature following addition of the HTRF detection reagents has little effect on the assay results providing another level of assay flexibility.
Briefly, consecutive dilutions (within the 0-5000 pg/ml range) of samples may be prepared with the diluent. The reagents are dispensed (as outlined in the protocol) into a 384-well low volume plate (20 ul). Negative and positive controls are included. The plate is covered with a plate sealer and incubated for 5 hours at room temperature or overnight at 4° C. Free PGE2 from the sample competes with […] for binding to the Cryptate conjugated anti-PGE2 antibody. Then the plate is read on a compatible HTRF reader.
as §4
(In general: Time-resolved FRET reads energy transfer from a long-lived donor to a nearby acceptor.)

For assay [6], the target named is T2, human recombinant COX-2 (Homo sapiens, UniProt P35354).
T2 sequence (P35354 18-604): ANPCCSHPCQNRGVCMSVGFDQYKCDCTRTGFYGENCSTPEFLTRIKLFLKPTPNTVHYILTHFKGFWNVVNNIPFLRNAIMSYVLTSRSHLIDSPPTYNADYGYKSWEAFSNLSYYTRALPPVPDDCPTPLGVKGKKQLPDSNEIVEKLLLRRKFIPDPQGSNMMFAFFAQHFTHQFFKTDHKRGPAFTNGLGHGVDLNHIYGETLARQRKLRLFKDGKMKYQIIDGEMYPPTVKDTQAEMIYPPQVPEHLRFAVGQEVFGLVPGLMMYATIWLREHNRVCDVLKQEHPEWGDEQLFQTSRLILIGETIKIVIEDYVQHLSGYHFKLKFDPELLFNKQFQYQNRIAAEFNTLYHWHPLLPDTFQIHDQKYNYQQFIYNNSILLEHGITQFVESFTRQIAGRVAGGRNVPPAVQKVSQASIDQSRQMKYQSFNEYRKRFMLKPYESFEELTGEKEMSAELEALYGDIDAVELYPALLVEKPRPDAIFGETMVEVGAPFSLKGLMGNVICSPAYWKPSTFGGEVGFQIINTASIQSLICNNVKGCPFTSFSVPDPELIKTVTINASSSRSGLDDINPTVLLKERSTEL
Put plainly: biochemical. The conditions noted are these: purified enzyme. The text has this:
An example of a COX Inhibitor Screening Assay (Cat. No. 560101 manufactured by Cayman Chemical Company, Ann Harbor, Mich.) directly measures PGF2 produced by SnCl2 reduction of COX-derived PGH2. The prostanoid product may be quantified via enzyme immunoassay (EIA) using a broadly specific antibody that binds to all the major prostaglandin compounds. […] The Cayman COX Inhibitor Screening Assay includes both ovine COX-1 and human recombinant COX-2 enzymes in order to screen isozyme-specific inhibitors.
An assay for prostaglandin is available from Cisbio International, Bedford Mass. One cell line suitable for infection by rhinovirus is A549 (ATCC designation CCL-185), a human epithelial lung carcinoma available from ATCC, Manassas, Va. […] A COX assay is available from Cayman Chemical, Ann Arbor, Mich.

Where two headings read alike, the source gives them in different places.

T1 sequence (P05979 25-600): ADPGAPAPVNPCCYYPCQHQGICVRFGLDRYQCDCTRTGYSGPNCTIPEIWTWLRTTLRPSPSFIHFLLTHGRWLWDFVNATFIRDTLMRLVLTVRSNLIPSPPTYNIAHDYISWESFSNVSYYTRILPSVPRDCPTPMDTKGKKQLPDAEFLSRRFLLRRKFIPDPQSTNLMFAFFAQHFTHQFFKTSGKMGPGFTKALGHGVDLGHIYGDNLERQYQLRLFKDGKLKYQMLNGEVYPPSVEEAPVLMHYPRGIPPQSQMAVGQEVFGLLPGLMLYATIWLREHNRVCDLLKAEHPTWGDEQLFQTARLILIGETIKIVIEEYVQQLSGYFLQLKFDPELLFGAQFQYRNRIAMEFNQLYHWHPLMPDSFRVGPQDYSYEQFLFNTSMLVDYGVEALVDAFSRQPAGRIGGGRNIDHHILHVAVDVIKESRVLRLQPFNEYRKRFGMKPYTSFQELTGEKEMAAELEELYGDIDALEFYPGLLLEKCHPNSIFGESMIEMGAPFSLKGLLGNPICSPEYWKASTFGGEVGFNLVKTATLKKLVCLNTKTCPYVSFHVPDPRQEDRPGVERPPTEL

For the compound `C=C1CC[C@@H]2[C@](C)(CO)[C@H](O)CC[C@@]2(C)[C@@H]1C/C=C1/C(=O)OC[C@H]1O` [Andrographolide, andrographolide], the “IP-10 (CXCL10)” value in assay [1] turned out to be 18.07 pg/mL.

Broadly, the IC50 is the concentration needed to halve the response being measured. Regarding `COc1cc(/C=C/C(=O)CC(=O)/C=C/c2ccc(O)c(OC)c2)ccc1O` [Curcumin, curcumin], the half-maximal inhibitory concentration (IC50) in assay [2] was found to be 5.9 µM; in assay [3], 37.5 µM.

With `CCOc1ccc2c(c1)C(C)=CC(C)(C)N2` [ETHOXYQUIN, ethoxyquin], the IC50 in assay [4] is 459 µM; in assay [5] (Homo sapiens, cells infected with rhinovirus (A549 named as suitable line), read-out: IC50 PGE2 formation), 0.03 µM; in assay [6], 54 µM.

Consider `CCCc1ccc(O)c(OC)c1` [DIHYDROEUGENOL, dihydroeugenol], for which the IC50 in assay [4] (purified enzyme, read-out: IC50 COX-1 activity) was 82 µM; in assay [5] (cells infected with rhinovirus (A549 named as suitable line), read-out: IC50 PGE2 formation), 0.38 µM; in assay [6] it was 75 µM.

As for `C=CCc1ccc(O)c(OC)c1` [EUGENOL, eugenol], the half-inhibitory concentration (IC50) turned out to be 42 µM in assay [4] and 0.42 µM in assay [5] (Homo sapiens, A549, read-out: IC50 PGE2 formation).
